Values quoted from earlier work as cited in US9541834B2, “Ionic thermal acid generators for low temperature applications” (Rohm and Haas Electronic Materials LLC, priority 2012, dated 2017).

Settings: pKa of conjugate acid (BH)+ of the base of the TAG, aqueous solution, about room temperature
In the case of “3-Fluoropyridinium perfluorobutanesulfonate [3-Fluoropyridinium PFBuS]”, the “pKa (base)” value is listed as 2.8. For N.O=S(=O)(O)C(F)(F)C(F)(F)C(F)(F)C(F)(F)F [Ammonium PFBuS, Ammonium perfluorobutanesulfonate], the “pKa (base)” value is given as 9.25. For “Pyridazinium perfluorobutanesulfonate [Pyridazinium PFBuS]”, the “pKa (base)” value is listed as 3.1.
